US8105431B2, “Subphthalocyanine derivative having phosphorus derivative as axially substituted group, method for manufacturing the same and optical film using the same” (Orient Chemical Industries, Ltd., priority 2008, dated 2012)

Key:
Format in all cases: physicochemical
[1] = Solubility to methyl ethyl ketone; settings: for solubility (in words): compared with the halo boron intermediate compounds
[2] = Absorption measurement in chloroform (maximum absorption wavelength, molar absorbance coefficient); settings: for Molar Absorbance Coefficient: 1 cm cell
Procedure: Measuring methods of the molar absorbance coefficient of the subphthalocyanine derivatives having the phosphorus derivative-substituted group obtained in the Examples 1-9 and the halo boron subphthalocyanine obtained in Synthesis Examples 1-4 were carried out as follows.
10.0 mg of the obtained compound was completely dissolved in 100 ml of chloroform. Then 10 ml of the solution was diluted with 100 ml of chloroform. Thus the absorbance of the obtained solution was measured using spectrophotometer (UV-1700 available from Shimadzu Corporation). Molar absorbance coefficient • was calculated using the following equation: A=•×C×l (A: absorbance, C: concentration (mol/L), l: light path (cm)) In the measurement, light pass length of the cell is 1 cm long.

[3] = Dissolution in coating solution for film manufacture; settings: 0.5 parts in 68.5 parts cyclohexanone and 30 parts methyl ethyl ketone with 1.0 parts polycarbonate
Procedure: 0.5 parts of Compound 1 obtained in Example 1 and 1.0 parts of polycarbonate were added into 68.5 parts of cyclohexanone and 30 parts of methyl ethyl ketone and stirred and dissolved to obtain a coating solution.
A film was manufactured in the same way as in Example 10 except that Intermediate Compound 1 obtained in Synthesis Example 1 was used in place of Compound 1 in Example 10.

| solubility (in words) ([1]; methyl ethyl ketone) | Solubility ([1]; methyl ethyl ketone) | dissolution in coating liquid [3] | Molecule | Solubility ([1]; Solvent: Methyl Ethyl Ketone) [wt %] | Maximum Absorption Wavelength [2] [nm] | Molar Absorbance Coefficient [2] |
| --- | --- | --- | --- | --- | --- | --- |
| remarkably improved | – | – | O=P(OB1n2c3c4ccccc4c2/N=C2N=C(/N=c4/c5ccccc5c(n41)=N3)c1ccccc1\2)(c1ccccc1)c1ccccc1 [Compound 1, SubPcBOPOPh2] | 0.44 | 564.0 | 7.69 ×10^−4 Lmol^−1cm^−1 |
| remarkably improved | more than 10 % by weight | – | CCCCOP(=O)(OCCCC)OB1n2c3c4ccccc4c2/N=C2N=C(/N=c4/c5ccccc5c(n41)=N3)c1ccccc1\2 [Compound 4, SubPcBOPO(OBu)2] | >10 | 562.5 | 7.78 ×10^−4 Lmol^−1cm^−1 |
| – | – | could not be fully dissolved | ClB1n2c3c4ccccc4c2/N=C2N=C(/N=c4/c5ccccc5c(n41)=N3)c1ccccc1\2 [Intermediate Compound 1, SubPcBCl, reference compound] | 0.003 | 565.0 | 5.10 ×10^−4 Lmol^−1cm^−1 |
| – | – | – | (PhS)3SubPcBCl [Intermediate Compound 11, reference compound] | – | 586.0 | 7.58 ×10^−4 Lmol^−1cm^−1 |
| – | – | – | (PhS)3SubPcBOPO(OBu)2 [Compound 26] | >10 | 584.0 | 9.95 ×10^−4 Lmol^−1cm^−1 |
| – | – | – | (PhS)3SubPcBOPOPh2 [Compound 24] | >10 | 584.5 | 7.24 ×10^−4 Lmol^−1cm^−1 |
| – | – | – | (i-C5H11S)3 SubPcBCl [Intermediate Compound 6, reference compound] | – | 587.5 | 5.82 ×10^−4 Lmol^−1cm^−1 |
| – | – | – | (i-C5H11S)3SubPcBOPO(OPh)2 [Compound 13] | – | 586.5 | 8.20 ×10^−4 Lmol^−1cm^−1 |
| – | – | – | (i-C5H11S)3SubPcBOPOPh2 [Compound 11] | >10 | 586.0 | 7.12 ×10^−4 Lmol^−1cm^−1 |
| – | – | – | (t-Bu)3 SubPcBCl [Intermediate Compound 2, reference compound] | >10 | – | – |
| – | – | – | (t-Bu)3SubPcBOPO(OBu)2 [Compound 7] | >10 | 568.0 | 7.62 ×10^−4 Lmol^−1cm^−1 |
| – | – | – | (t-Bu)3SubPcBOPOPh2 [Compound 5] | >10 | 570.5 | 8.74 ×10^−4 Lmol^−1cm^−1 |

| Molecule | solubility (in words) ([1]; methyl ethyl ketone) | Solubility ([1]; methyl ethyl ketone) | dissolution in coating liquid [3] | Solubility ([1]; Solvent: Methyl Ethyl Ketone) [wt %] | Maximum Absorption Wavelength [2] [nm] | Molar Absorbance Coefficient [2] |
| --- | --- | --- | --- | --- | --- | --- |
| O=P(OB1n2c3c4ccccc4c2/N=C2N=C(/N=c4/c5ccccc5c(n41)=N3)c1ccccc1\2)(Oc1ccccc1)Oc1ccccc1 [Compound 3, SubPcBOPO(OPh)2] | remarkably improved | – | – | 0.34 | 564.5 | 6.96 ×10^−4 Lmol^−1cm^−1 |
